Data as given in the NIST ThermoML archive (doi:10.1016/j.jct.2012.08.010).

Assay: xn = mol fraction of the nth substance listed
Settings: 101 kPa, Liquid, Vibrating tube method

C=C[Si]1(C)O[Si](C)(C=C)O[Si](C)(C=C)O[Si](C)(C=C)O1 (stereo not given) [2,4,6,8-tetramethyl-2,4,6,8-tetravinylcycloterasiloxane] + CCc1ccccc1
mass density [kg/m3]
Settings	288.15 K	298.15 K	308.15 K	318.15 K	328.15 K
x1 = 0.0501	887.7	878.79	869.83	860.83	851.79
x1 = 0.1045	902.53	893.47	884.37	875.24	866.11
x1 = 0.1504	913.16	904	894.77	885.58	876.37
x1 = 0.2005	923.2	913.94	904.59	895.29	885.99
x1 = 0.2502	931.85	922.49	913.05	903.69	894.31
x1 = 0.3023	939.76	930.31	920.8	911.36	901.91
x1 = 0.3443	945.44	935.9	926.4	916.84	907.26
x1 = 0.3988	952.02	942.4	932.8	923.14	913.48
x1 = 0.4491	957.43	947.75	938.01	928.31	918.61
x1 = 0.499	962.24	952.49	942.68	932.88	923.08
x1 = 0.5497	966.67	956.86	946.99	937.14	927.3
x1 = 0.5979	970.47	960.6	950.7	940.8	930.9
x1 = 0.6498	974.27	964.35	954.39	944.46	934.51
x1 = 0.6946	977.23	967.27	957.29	947.3	937.32
x1 = 0.7486	980.54	970.52	960.48	950.44	940.38
x1 = 0.7994	983.4	973.34	963.28	953.21	943.13
x1 = 0.8489	985.97	975.86	965.78	955.67	945.56
x1 = 0.9467	990.55	980.33	970.21	960.03	949.84
x1 = 1	992.74	982.54	972.34	962.14	951.94

C=C[Si]1(C)O[Si](C)(C=C)O[Si](C)(C=C)O[Si](C)(C=C)O1 (stereo not given) [2,4,6,8-tetramethyl-2,4,6,8-tetravinylcycloterasiloxane] + Cc1ccc(C)cc1
mass density [kg/m3]
Settings	288.15 K	298.15 K	308.15 K	318.15 K	328.15 K
x1 = 0.0501	882.57	873.71	864.79	855.81	846.77
x1 = 0.1045	898.18	889.15	879.99	870.82	861.58
x1 = 0.1528	909.95	900.78	891.46	882.13	872.74
x1 = 0.2005	919.97	910.61	901.17	891.84	882.31
x1 = 0.25	929.05	919.68	910.08	900.53	890.92
x1 = 0.3017	937.34	927.86	918.16	908.52	898.83
x1 = 0.3444	943.41	933.87	924.09	914.37	904.6
x1 = 0.3985	950.18	940.53	930.74	920.97	911.16
x1 = 0.4489	955.85	946.14	936.28	926.45	916.57
x1 = 0.4989	960.92	951.15	941.23	931.34	921.41
x1 = 0.5495	965.55	955.72	945.76	935.82	925.84
x1 = 0.5985	969.61	959.72	949.73	939.75	929.74
x1 = 0.649	973.48	963.54	953.51	943.48	933.43
x1 = 0.6941	976.62	966.59	956.55	946.5	936.42
x1 = 0.7484	980.08	970.08	959.96	949.86	939.75
x1 = 0.7992	983.04	972.97	962.87	952.74	942.62
x1 = 0.8375	985.13	975.04	964.91	954.76	944.62
x1 = 0.9462	990.42	980.26	970.11	959.92	949.73
x1 = 1	992.74	982.54	972.34	962.14	951.94

C=C[Si]1(C)O[Si](C)(C=C)O[Si](C)(C=C)O[Si](C)(C=C)O1 (stereo not given) [2,4,6,8-tetramethyl-2,4,6,8-tetravinylcycloterasiloxane] + Cc1cccc(C)c1
mass density [kg/m3]
Settings	288.15 K	298.15 K	308.15 K	318.15 K	328.15 K
x1 = 0.05	885.05	876.18	867.36	858.49	849.53
x1 = 0.1062	900.56	891.58	882.48	873.4	864.24
x1 = 0.1505	910.91	901.78	892.55	883.33	874.04
x1 = 0.2005	921.17	911.87	902.51	893.18	883.77
x1 = 0.2501	930.07	920.57	911.13	901.66	892.14
x1 = 0.3023	938.25	928.62	919.04	909.46	899.85
x1 = 0.3442	944.08	934.35	924.72	915.05	905.37
x1 = 0.3985	950.83	941.02	931.29	921.55	911.8
x1 = 0.4491	956.41	946.51	936.74	926.91	917.12
x1 = 0.499	961.37	951.41	941.59	931.69	921.85
x1 = 0.5495	965.9	955.89	946	936.07	926.17
x1 = 0.5981	969.84	959.8	949.86	939.92	929.94
x1 = 0.6498	973.72	963.58	953.57	943.62	933.58
x1 = 0.6946	976.79	966.61	956.57	946.59	936.5
x1 = 0.7483	980.15	969.99	959.9	949.87	939.74
x1 = 0.7983	983.05	972.9	962.78	952.69	942.58
x1 = 0.8489	985.74	975.61	965.47	955.35	945.21
x1 = 0.9463	990.44	980.3	970.11	959.94	949.75
x1 = 1	992.74	982.54	972.34	962.14	951.94

C=C[Si]1(C)O[Si](C)(C=C)O[Si](C)(C=C)O[Si](C)(C=C)O1 (stereo not given) [2,4,6,8-tetramethyl-2,4,6,8-tetravinylcycloterasiloxane] + Cc1ccccc1C
mass density [kg/m3]
Settings	288.15 K	298.15 K	308.15 K	318.15 K	328.15 K
x1 = 0.0501	899.27	890.61	882.01	873.28	864.53
x1 = 0.1045	912.95	904.03	895.21	886.26	877.4
x1 = 0.1503	922.61	913.54	904.57	895.48	886.45
x1 = 0.2004	931.72	922.5	913.37	904.14	894.98
x1 = 0.2501	939.54	930.19	920.94	911.57	902.32
x1 = 0.3022	946.69	937.18	927.81	918.32	909.02
x1 = 0.3443	951.7	942.14	932.7	923.13	913.69
x1 = 0.3987	957.55	947.88	938.35	928.69	919.16
x1 = 0.4487	962.3	952.55	942.93	933.19	923.59
x1 = 0.499	966.62	956.77	947.08	937.26	927.63
x1 = 0.549	970.42	960.52	950.76	940.89	931.18
x1 = 0.598	973.72	963.78	954.02	944.1	934.32
x1 = 0.6483	976.93	966.95	957.08	947.12	937.26
x1 = 0.6945	979.61	969.55	959.65	949.64	939.74
x1 = 0.7483	982.42	972.33	962.38	952.33	942.34
x1 = 0.7987	984.81	974.7	964.71	954.64	944.57
x1 = 0.8489	987.06	976.91	966.88	956.77	946.68
x1 = 0.9426	990.76	980.56	970.47	960.3	950.08
x1 = 1	992.74	982.54	972.34	962.14	951.94
